Experimental data taken from US9840512B2, “Antidiabetic bicyclic compounds” (Merck Sharp & Dohme Corp., priority 2013, dated 2017).

target: human GPR40 (Homo sapiens, UniProt O14842); assay: Inositol Phosphate Turnover (IP1) Assay 2; assay type: cell-based; design: expressed in transfected cells; conditions: HEK cells stably expressing human GPR40, Table 2, read-out: Human IP1
Protocol: Human and mouse GPR40 stable cell-lines were generated in CHO cells stably expressing NFAT BLA (Beta-lactamase). A human GPR40 stable cell-line was generated in HEK cells stably expressing the aequorin expressing reporter. The expression plasmids were transfected using lipofectamine (Life Technologies) following manufacturer's instructions. Stable cell-lines were generated following drug selection.
The assay is performed in 384-well format. HEK cells stably expressing human GPR40 are plated at 15,000 cells per well in growth medium (DMEM/10% fetal calf serum). Cell plates are then incubated 16 hours at 37 degrees in a 5% CO2 incubator.
Measurement of Inositol Phosphate Turnover (IP1) is performed using the CisBio IP-One kit (Part number 62IPAPEB). After the 16 hour incubation, the cells are washed with HEPES buffer and 10 ul of stimulation buffer (prepared as described in the kit) is added to each well. In a separate plate, compounds are diluted in DMSO (400-fold over the final concentration in the assay well) and 25 nl is acoustically transferred to the appropriate well in the assay cell plate. The plates are then incubated for 60 minutes at 37 degrees. 10 ul of detection buffer (also prepared as described in the IP-One kit) is added to each well and the plates are incubated for 60 minutes in the dark. The plates are then read in a Perkin Elmer EnVision or equivalent reader able to measure FRET.

human GPR40, sequence (O14842 whole entry): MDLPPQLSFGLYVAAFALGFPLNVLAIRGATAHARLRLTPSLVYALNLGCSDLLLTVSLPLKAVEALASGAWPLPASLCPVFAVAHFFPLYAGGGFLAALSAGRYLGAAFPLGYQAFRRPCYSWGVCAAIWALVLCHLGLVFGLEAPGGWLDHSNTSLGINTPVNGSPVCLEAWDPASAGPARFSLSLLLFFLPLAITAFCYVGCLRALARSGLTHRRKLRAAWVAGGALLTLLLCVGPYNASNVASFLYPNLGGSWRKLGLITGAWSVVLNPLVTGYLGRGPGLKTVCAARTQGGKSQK

Compound | EC50
O=C(O)C[C@H](c1ccc2c(c1)OC(c1ccc(-c3ccccc3)cc1)CC2)C1CC1 (mixture of isomers) [Example 80] | 130 nM
COc1cncc(-c2ccc(C3CCc4ccc([C@@H](CC(=O)O)C5CC5)cc4O3)c(F)c2)c1 (mixture of isomers) [Example 86] | 363 nM
CN1CCOc2cc(-c3ccc(C4CCc5ccc([C@@H](CC(=O)O)C6CC6)cc5O4)c(F)c3)ccc21 (mixture of isomers) [Example 87] | 1390 nM
COc1ccc(F)c(-c2ccc(C3CCc4ccc([C@@H](CC(=O)O)C5CC5)cc4O3)c(F)c2)c1 (mixture of isomers) [Example 88] | 6.5 nM
COc1cccc(-c2ccc(C3CCc4ccc([C@@H](CC(=O)O)C5CC5)cc4O3)c(F)c2)c1 (mixture of isomers) [Example 90] | 10.6 nM
COc1cc(-c2ccc(C3CCc4ccc([C@@H](CC(=O)O)C5CC5)cc4O3)c(F)c2)c(F)cn1 (mixture of isomers) [Example 91] | 3.6 nM
COc1ccc(Cl)c(-c2ccc(C3CCc4ccc([C@@H](CC(=O)O)C5CC5)cc4O3)c(F)c2)c1 (mixture of isomers) [Example 92] | 19 nM
COc1cncc(-c2ccc(C3CCc4ccc([C@@H](CC(=O)O)C5CC5)cc4O3)c(F)c2)n1 (mixture of isomers) [Example 93] | 488 nM
COc1cc(-c2ccc(C3CCc4ccc([C@@H](CC(=O)O)C5CC5)cc4O3)c(F)c2)c(F)cc1F (mixture of isomers) [Example 95] | 218 nM
COc1cc(-c2ccc(C3CCc4ccc([C@@H](CC(=O)O)C5CC5)cc4O3)c(F)c2)ccn1 (mixture of isomers) [Example 96] | 14 nM
COc1ccc(F)c(-c2ccc(C3CCc4ccc([C@@H](CC(=O)O)C5CC5)cc4O3)cc2OC(F)(F)F)c1 (mixture of isomers) [Example 99] | 29 nM
COc1ccc(F)c(-c2ccc(C3CCc4ccc([C@H](C5CC5)[C@H](C)C(=O)O)cc4O3)cc2OC(F)(F)F)c1 (mixture of isomers) [Example 100] | 32 nM
COc1ccc(F)c(-c2ccc(C3CCc4ccc([C@@H](CC(=O)O)C5CC5)cc4O3)cc2[C@H]2CCCC2(C)C)c1 (mixture of isomers) [Example 102] | 66 nM
COc1ccc(F)c(-c2ccc(C3CCc4ccc([C@@H](CC(=O)O)C5CC5)cc4O3)cc2[C@@H]2CCCC2(C)C)c1 (mixture of isomers) [Example 103] | 6.2 nM
COc1ccc(F)c(-c2ccc(C3CCc4ccc([C@@H](CC(=O)O)C5CC5)cc4O3)nc2)c1 (mixture of isomers) [Example 104] | 16 nM
C[C@H](C(=O)O)[C@H](c1ccc2c(c1)OC(c1ccc(-c3cc(O)ccc3F)cn1)CC2)C1CC1 (mixture of isomers) [Example 107] | 132 nM
COc1ccc(F)c(-c2ccc(C3CCc4ccc([C@H](C5CC5)[C@H](C)C(=O)O)cc4O3)nc2C2=CCCC2(C)C)c1 (mixture of isomers) [Example 114] | 8.8 nM
COc1ccc(F)c(-c2ccc(C3CCc4ccc([C@H](C5CC5)[C@H](C)C(=O)O)cc4O3)c(C(F)(F)F)n2)c1 (mixture of isomers) [Example 116] | 17 nM
COc1cc(-c2cnc(C3CCc4ccc([C@H](C5CC5)[C@H](C)C(=O)O)cc4O3)c(F)c2)ccn1 (mixture of isomers) [Example 121] | 11 nM
COc1ccc(F)c(-c2ccc(C3CCc4ccc([C@@H](CC(=O)O)C5CC5)cc4O3)cc2C(OC)C2CC2)c1 (mixture of isomers) [Example 126] | 14.1 nM
COc1ccc(F)c(-c2ccc(C3CCc4ccc([C@@H](CC(=O)O)C5CC5)cc4O3)cc2C(OC)C(F)(F)F)c1 (mixture of isomers) [Example 127] | 41.5 nM
COc1ccc(F)c(-c2ccc(C3CCc4ccc([C@H](C5CC5)[C@H](C)C(=O)O)cc4O3)cc2C(OC)C(C)(C)C)c1 (mixture of isomers) [Example 128] | 3.2 nM
COc1cc(-c2ccc(C3CCc4ccc([C@H](C5CC5)[C@H](C)C(=O)O)cc4O3)cc2C(OC)C(C)(C)C)ccn1 (mixture of isomers) [Example 129] | 0.5 nM

Compound | EC50
COc1cc(-c2ccc(C3CCc4ccc([C@H](C5CC5)[C@H](C)C(=O)O)cc4O3)cc2C(OC)C2CC2)c(F)cn1 (mixture of isomers) [Example 130] | 0.9 nM
COc1ccc(F)c(-c2cnc(C3CCc4ccc([C@H](C5CC5)[C@H](C)C(=O)O)cc4O3)cn2)c1 (mixture of isomers) [Example 131] | 1.7 nM
COc1ccc(F)c(-c2ccc(C3CCc4ccc([C@H](C5CC5)[C@H](C)C(=O)O)cc4O3)nc2N2CCC2)c1 (mixture of isomers) [Example 132] | 18 nM
COc1cc(-c2ccc(C3CCc4ccc([C@H](C5CC5)[C@H](C)C(=O)O)cc4O3)c(F)c2)ccn1 (mixture of isomers) [Example 133, (2S,3R)-3-cyclopropyl-3-(2-(2-fluoro-4-(2-methoxypyridin-4-yl)phenyl)-chroman-7-yl)-2-methylpropanoic acid] | 1.2 nM
COc1ccc(F)c(-c2ccc(C3CCc4ccc([C@H](C5CC5)[C@H](C)C(=O)O)nc4O3)cc2)c1 (mixture of isomers) [Example 137] | 454 nM
COc1ccc(F)c(-c2ccc(C3CCc4ccc([C@@H](CC(=O)O)C5CC5)cc4O3)cc2)c1 (single isomer, unassigned) [Example 61] | 36 nM
COc1ccc(F)c(-c2ccc(C3CCc4ccc([C@@H](CC(=O)O)C5CC5)cc4O3)cc2)c1 (single isomer, unassigned) [Example 62] | 18 nM
COc1ccc(F)c(-c2ccc([C@@H]3CCc4ccc([C@H](C5CC5)[C@H](C)C(=O)O)cc4O3)cc2)c1 (single isomer, unassigned) [Example 63] | 3.3 nM
COc1ccc(F)c(-c2ccc([C@H]3CCc4ccc([C@H](C5CC5)[C@H](C)C(=O)O)cc4O3)cc2)c1 (single isomer, unassigned) [Example 64] | 1.1 nM
COc1ccc(F)c(-c2ccc(C3CCc4ccc([C@H](C5CC5)[C@@H](C)C(=O)O)cc4O3)cc2)c1 (single isomer, unassigned) [Example 65] | 51 nM
COc1ccc(F)c(-c2ccc(C3CCc4ccc([C@H](C5CC5)[C@@H](C)C(=O)O)cc4O3)cc2)c1 (single isomer, unassigned) [Example 66] | 53 nM
C[C@H](C(=O)O)[C@H](c1ccc2c(c1)OC(c1ccc(-c3cc(O)ccc3F)cc1)CC2)C1CC1 (single isomer, unassigned) [Example 67] | 21 nM
C[C@H](C(=O)O)[C@H](c1ccc2c(c1)OC(c1ccc(-c3cc(O)ccc3F)cc1)CC2)C1CC1 (single isomer, unassigned) [Example 68] | 1.9 nM
COc1ccc(F)c(-c2ccc(C3CCc4ccc([C@H](C5CC5)[C@H](C)C(=O)O)cc4O3)nc2)c1 (single isomer, unassigned) [Example 97a] | 0.9 nM
COc1ccc(F)c(-c2ccc(C3CCc4ccc([C@H](C5CC5)[C@@H](C)C(=O)O)cc4O3)nc2)c1 (single isomer, unassigned) [Example 97b] | 30 nM
COc1ccc(F)c(-c2ccc(C3CCc4ccc([C@H](C5CC5)[C@H](C)C(=O)O)cc4O3)nc2)c1 (single isomer, unassigned) [Example 97c] | 2.9 nM
COc1ccc(F)c(-c2ccc(C3CCc4ccc([C@H](C5CC5)[C@@H](C)C(=O)O)cc4O3)nc2)c1 (single isomer, unassigned) [Example 97d] | 43 nM
COc1ccc(F)c(-c2ccc(C3CCc4ccc(C(CC(=O)O)C5CC5)cc4O3)cc2C2=CCCC2(C)C)c1 (single isomer, unassigned) [Example 101a] | 662 nM
COc1ccc(F)c(-c2ccc(C3CCc4ccc(C(CC(=O)O)C5CC5)cc4O3)cc2C2=CCCC2(C)C)c1 (single isomer, unassigned) [Example 101b] | 704 nM
COc1ccc(F)c(-c2ccc(C3CCc4ccc(C(CC(=O)O)C5CC5)cc4O3)cc2C2=CCCC2(C)C)c1 (single isomer, unassigned) [Example 101c] | 58 nM
COc1ccc(F)c(-c2ccc(C3CCc4ccc(C(CC(=O)O)C5CC5)cc4O3)cc2C2=CCCC2(C)C)c1 (single isomer, unassigned) [Example 101d] | 90 nM
COc1ccc(F)c(-c2cnc(C3CCc4ccc([C@H](C5CC5)[C@H](C)C(=O)O)cc4O3)c(F)c2)c1 (single isomer, unassigned) [Example 105a] | 0.82 nM
COc1ccc(F)c(-c2cnc(C3CCc4ccc([C@H](C5CC5)[C@H](C)C(=O)O)cc4O3)c(F)c2)c1 (single isomer, unassigned) [Example 105b] | 0.79 nM

same assay, conditions: HEK cells stably expressing human GPR40, Table 3, read-out: Human IP1 activity

Compound | EC50
COc1ccc(F)c(-c2ccc(C3COc4ccc([C@H](C5CC5)[C@H](C)C(=O)O)c(F)c4O3)nc2)c1 (mixture of isomers) [Example 165] | 2.6 nM
COc1ccc(F)c(-c2ccc(C3COc4ccc([C@@H](CC(=O)O)C5CC5)cc4O3)cc2)c1 (mixture of isomers) [Example 166] | 18.8 nM
COc1ccc(F)c(-c2ccc(C3COc4ccc([C@H](C5CC5)[C@H](C)C(=O)O)cc4O3)cc2OC(F)(F)F)c1 (mixture of isomers) [Example 169] | 9.5 nM
